Results reported in patent US20240009203A1, “COMPOSITIONS AND METHODS FOR TREATING ALZHEIMER'S DISEASE” (Cedars-Sinai Medical Center, priority 2020, published 2024).

Legend:
[1] = system: ADtg mice; test: Open Field-Barnes Maze test; assay type: in vivo
Method: (§1) Wildtype and ADtg mice (18 months, males and females) were treated with ETP69 or vehicle (DMSO-saline) to test the effects of ETP69 in improving cognition in a mouse model of Alzheimer's disease. On day 1, mice were treated with an injection of 10 mg/kg ETP69 of vehicle. Then starting on day 2, mice were tested in various behavioral tests, including Y-maze, visual test alternation, Open Field-Barnes Maze, and/or fear conditioning. On either day 4 or day 19 mice were sacrificed, and tissues analyzed for histone trimethylation levels, A-beta levels, immunohistochemistry (GFAP, IGF1), Spine count (Golgi-Cox staining), —Neurotrophic support and synaptic markers.
The results of the Open Field-Barnes Maze test indicate hippocampal-based spatial learning and memory.
(§2) The effects of single and repeated ETP69 injections in mice were tested. The experimental timeline is depicted in FIG. 8. Three parallel injection conditions were tested: a single ETP69 condition, a boosted ETP69 injection, and repeated ETP69 injections, as depicted in Table 2. The single injection mice received one injection of ETP69 or DMSO at Day 0. The mice that received a boosted injection received one injection of ETP69 or DMSO at day 0 and one injection at day 9. The mice that received repeated injections received 11 injections of ETP69 or DMSO at day 0 or day 9. Both wildtype and AD model (APP/PS1-transgenic) mice were tested.
The results of the Open Field Barnes Maze test indicate hippocampal-based spatial memory and learned. […] A comparison of results of single (S), boost (B) and repeated (R) injections is depicted in FIG. 11D-11H.
(§3) 18 month old wildtype and AD+ mice were administered an oral dose of 50 mg/kg ETP69 or oraB once a day for 4 weeks. The experimental protocol is depicted in FIG. 23.
On days 4-7 mice were tested on the training phase of the Barnes Maze (FIG. 27A). On day 10, mice were tested on the retention phase. On days 11-12, mice were tested on the reversal phase. Results are depicted in FIG. 27B-27E.

[2] = system: BDNF pathway; test: Ingenuity pathway analysis of proteome data, BDNF pathway; design: species or system mice; conditions: FIG. 19B, p<0.0001
Description: (§4) FIGS. 19A, 19B, and 20 include global proteome data from a mass spectrometry analysis. […] Some of these proteins, such as HPX, may be involved in anti-oxidative-stress or anti-inflammatory pathways.

[3] = system: ADtg mice; test: Visual X maze (visual stimuli X-maze), color mode; assay type: in vivo
Method: as §1
The results of the Koronyo's Visual X Maze (color) indicate visual-cognitive memory and learning.
as §2
(§5) FIG. 10A-10D depicts the results of the mice on the color mode of the visual stimuli X-maze test. […] FIG. 10E-10F depict the results of the contrast mode of the visual stimuli X-maze test.
(§6) The effects of ETP69 injections in 14 month old mice was tested. Wildtype mice were divided into 2 treatment groups, mice that received an ETP69 injection (n=10) and mice that received a DMSO injection (N=10). AD+ mice were divided into 2 treatment groups, mice that received an ETP69 injection (n=8) and mice that received a DMSO injection (N=7). The experimental protocol is depicted in FIG. 15.
Mice were tested for visual-cognitive memory and learning using a visual X maze.
as §3
On day 1, the mice were tested in the open field test as depicted in FIG. 24A. Rearing and total locomotor activity were measured in mice administered oraB and ETP69 (FIG. 24B-24G). On day 2, mice were tested in the color visual-stimuli X-maze. […] On day 3, mice were tested in the contrast visual-stimuli X-maze. Results are depicted in FIG. 26A-26E.

[4] = system: H3K9me3; test: H3K9me3 brain staining and quantification; assay type: in vivo, mice
Description: (§7) 18 month old AD+ mice brains were stained for neuronal H3K9me3 and DAPI. FIG. 14A is a representative image of the H3K9me3 signal across cortical layers. FIG. 14B is a representative image comparing ETP69 treated and DMSO control brains. […] FIG. 14D depicts immunohistochemistry of 6E10+ amyloid-beta plaques and GFAP+ astrogliosis in coronal sections of AD+ mice treated with ETP69 or DMSO.

[5] = system: 6E10+ amyloid-beta plaques; test: Immunohistochemistry of 6E10+ amyloid-beta plaques; assay type: in vivo, mice
Description: as §7, with “FIG.” for “18 month old AD+ mice brains were stained for neuronal H3K9me3 and DAPI. FIG.”

[6] = system: global proteome; test: Global proteome mass spectrometry analysis of brains; assay type: in vivo, mice
Description: Overall, the experiments in these examples from multiple cohorts of 14- and 18-month-old murine models of AD (AD+ mice) and age/gender-matched control mice provide support that by inhibiting the enzyme SUV39H1 that regulates H3K9me3 via ETP69 compound (AKA NT1721), the chromatin state of subjects may be altered, and memory and synaptic plasticity may be restored in aging and AD brains. The therapeutic usefulness of ETP69 has been shown in the experiments described in these examples, in both aged WT mice and the well-established transgenic mouse models of AD (APPSWE/PS1ΔE9, AD+ mice), following a single (S), a boost (B), or once a week repeated (R) i.p. injections of ETP69. […] Additionally, in investigation of whole proteome profiles by mass spectrometry identified some mechanisms of action for ETP69 in the aged WT and AD+ mice.
as §4

[7] = system: AD+ mice; test: Visual stimuli X-maze, contrast mode; assay type: in vivo; conditions: 18 mo, i.p. 10 mg/kg, contrast mode (FIG. 10E-10F)
Method: as §2, §5

[8] = system: dendritic spines; test: Golgi-Cox staining of brain sections (dendritic spines); assay type: in vivo, mice
Method: as §1
Chromium salts which bind to proteins in the neuron are randomly formed during the impregnation, then transformed to black mercuric sulfide deposits upon alkali treatment (Ramón-Moliner, 1970; Špaček, 1989; Rosoklija et al., 2014). The architecture of the impregnated neuron, including cell somas, axons, dendrites and spines, could be easily visualized. It is expected that qualitative observations by these measures of brains from ADtg mice treated with ETP69 will show higher spine density as compared to brains of DMSO-injected control ADtg mice. FIG. 7A-7D include Golgi-Cox stain images of whole neurons and their dendritic projections.
The right brain hemispheres of 18 month old mice were stained with the Golgi-Cox method to detect the cytoarchitecture and morphology of neurons. FIG. 13A depicts representative images of the cingulate cortex of mice administered DMSO or ETP69 and FIG. 13B depicts a representative image of the hippocampal area of a mouse treated with ETP69.

[9] = system: Iba1; test: Iba1 immunohistochemistry; assay type: in vivo; conditions: 14 month old AD+ mice, compared to untreated AD+ mice (FIG. 18E)
[10] = humans; cited from earlier work
[11] = system: ADtg mice; test: Fear conditioning test; assay type: in vivo
Method: as §1
The results of the fear conditioning test indicate spatial memory.
as §2, §6
The fear conditioning test was used to indicate spatial memory.

[12] = system: ADtg mice; test: Y-maze test; assay type: in vivo
[13] = system: cerebral macrophages, microglia, and astrocytes; test: Effects on cerebral inflammatory cells (FIG. 21A-21L); assay type: in vivo; conditions: AD+ mice (FIG. 21A-21L)
Description: These phagocytic inflammatory cells may be involved in immune activation and clearing toxic Aβ. Restoring a young phenotype may explain reduced neuroinflammation and Aβ plaques in the ETP69 treated AD+ mice.

[14] = system: proteins related to learning, cognition, conditioning, anxiety; test: Ingenuity analysis of behavioral pathways; design: species or system mice; conditions: FIG. 20
Description: as §4

[15] = system: GFAP; test: GFAP+ astrogliosis (immunohistochemistry, western blot); assay type: in vivo, mice
Description: as §7

[16] = system: VGF; test: VGF expression in hippocampus; assay type: in vivo; conditions: dentate gyrus and other hippocampal regions, 18-mo-old AD-Tg mice, single ETP69 injection (FIG. 22)
Method: (§8) Expression of VGF, BDNF, and NCAM was analyzed in 18-month AD+ mice following a single ETP69 injection. Representative images are depicted in FIG. 22.

[17] = system: BDNF; test: BDNF expression in hippocampus; assay type: in vivo; conditions: dentate gyrus and other hippocampal regions, 18-mo-old AD-Tg mice, single ETP69 injection (FIG. 22)
Method: as §8

[18] = ADtg mice, 18 months, injection of 10 mg/kg, compared with vehicle treated mice (FIG. 5A-5C)
[19] = AD+ mice, 18 mo, i.p. 10 mg/kg, color mode (FIG. 10A-10D)
[20] = ADtg mice, 18 months, injection of 10 mg/kg, compared with vehicle treated mice (FIG. 4A-4J)
[21] = cingulate cortex and hippocampus, 18 month old mice (FIG. 13C-13D)

CN1C(=O)[C@@]23C[C@](C)(C#N)[C@H](c4ccc5c(c4)OCO5)N2C(=O)[C@]1(C)SS3 (racemic) [ETP69, Rac-(3S,6S,7S,8aS)-6-(benzo[d][1,3]dioxol-5-yl)-2,3,7-trimethyl-1,4-dioxohexahydro-6H-3,8a-epidithiopyrrolo[1,2-a]pyrazine-7-carbonitrile]
memory retention ([1]; AD+ mice, 18 mo, i.p. 10 mg/kg, compared to AD+ mice treated with DMSO (FIG. 11A-11C)): improvement | incorrect entries [1, 18]: fewer | latency [1, 18]: reduced | memory retention [1, 18]: improvement | reversal of cognitive deficits ([1]; old AD-model mice (18 month), oral 50 mg/kg once a day for 4 weeks, Barnes Maze (FIG. 27B-27E)): significant reversal | BDNF pathway activation Z-score [2]: 2.359 | alternation ([3]; 14 month old AD+ mice, ETP69 injection, compared to untreated mice, mode not stated (FIG. 16A-16D)): improvements | bidirectional movement [3, 19]: significant increase | percent alternation [3, 19]: significant increase | color bidirectional [3, 20]: improvements | percent spontaneous alternation [3, 20]: improvements | reversing cognitive dysfunction ([3]; old mice (18 month), oral 50 mg/kg in oraB once a day for 4 weeks, color visual-stimuli X-maze (FIG. 25A-25E)): beneficial effects | H3K9me3 ([4]; 14 month old AD+ mice, compared to untreated AD+ mice (FIG. 18B)): decrease | H3K9me3 staining ([4]; 18 month old AD+ mice, cortex and hippocampus (FIG. 14C)): significant decrease | 6E10 ([5]; 14 month old AD+ mice, compared to untreated AD+ mice (FIG. 18C)): decrease | decrease in the amount of 6E10 amyloid plaques ([5]; brains of 18 month old AD+ mice (FIG. 14E)): 42% | proteins upregulated, AD+ mice treated with ETP69 compared to untreated AD+ mice ([6]; brains, FIG. 19A): VAV3, CORO2A and HPX | most up-regulated proteins following ETP69 administration ([6]; whole proteome profiles by mass spectrometry, aged WT and AD+ mice): VGF and HP/HPX | percent alternation [7]: significant increase | association of spine preservation with errors in the Barnes maze test ([8]; 18 month old mice, correlation (FIG. 13G)): reduced errors | ratio of thin spines to all spines ([8]; AD+ mice, 18 month, compared to AD+ mice administered DMSO alone (FIG. 13E-13F)): significant increase | dendritic spines [8, 21]: increase | thin (immature) spines [8, 21]: increase | Iba1 [9]: decrease | safety and tolerability [10]: generally safe and tolerable | freezing time ([11]; 14 month old AD+ mice, ETP69 injection (FIG. 17A-17B)): increase | freezing time ([11]; AD+ mice, 18 mo, i.p. 10 mg/kg (FIG. 12)): increased | freezing time ([11]; ADtg mice, 18 months, injection of 10 mg/kg (FIG. 6A-6B)): increased | percent alternation ([12]; AD+ mice, 18 mo, i.p. 10 mg/kg, vs AD+ DMSO (FIG. 9B)): significant increase | percent spontaneous alternation ([12]; ADtg mice, 18 months, injection of 10 mg/kg ETP69, compared with vehicle treated mice (FIG. 3A-3B)): improvement | number of total entries ([12]; both wildtype and AD+ mice, 18 mo, i.p. 10 mg/kg in DMSO, single/boost/repeated (FIG. 9A), indicates decreased locomotor activity): decreased | effects on cerebral macrophages, microglia, and astrocytes [13]: dramatic effects | proteins related to conditioning, anxiety, and other behaviors [14]: inhibition | proteins related to learning and cognition [14]: activation | GFAP ([15]; 14 month old AD+ mice, compared to untreated AD+ mice (FIG. 18D)): decrease | decrease of GFAP irradiance ([15]; 18 month old AD+ mice, cingulate cortex (FIG. 14F)): 58% | VGF expression [16]: Marked increases | BDNF expression [17]: Marked increases
